Reference: patent publication US7279548B2, “Identification and isolation of novel polypeptides having WW domains and methods of using same” (Cytogen Corporation, priority 1996, dated 2007)
No end group written: not given here. *: point of attachment. Biotin = O=C1N[C@H]2[C@H](CS[C@H]2CCCCC(=O)*)N1

What follows are substances tested on WW domains of WWP1 expressed as GST fusion proteins (assay: ELISA based cross affinity mapping, WW domains of WWP1). Conditions: biotinylated peptide-streptavidin/alkaline phosphatase complex; GST fusion proteins; ELISA.
Assay type: binding, human
Method: The 16 day mouse embryo cDNA expression library was diluted 1:1000 in SM solution (100 mM NaCl, 8 mM MgSOv4, 50 mM Tris HCl pH 7.5, 0.01% gelatin). To a sterile test tube, 2 μl of diluted mouse embryo library, 100 μl of 10 mM CaCl2, 100 μl of 10 mM MgCl2 and 100 μl of BL21(DE3)pLysE bacterial cells (grown overnight) were added and incubated for 30 minutes at 37° C. The contents of the tube were mixed with 3 ml of 0.6% top agarose, containing […] chloramphenicol, and poured onto a 2xYT plate (90 mm diameter). For a large primary screen, 10–20 plates were prepared with 3×10^4 pfu per plate. After 6 hours incubation at 37° C., a nitrocellulose filter soaked in 10 mM isopropyl-β-D-thiogalactopyranoside (IPTG) was overlaid on each plate and incubated 3–6 hours at 37° C. Before the filters were removed from the plates, they were marked asymmetrically with India ink in a 18 gauge syringe needle. The plates were stored at 4° C. until ready for the secondary screen. The filters were washed with PBS (137 mM NaCl, 2.7 mM KCl, 4.3 mM Na2HPO4, 1.4 mM KH2PO4)-0.05% Triton X-100 three times at room temperature, 15 minutes each wash, and then placed in a plastic bag containing non-specific blocking solution (PBS-2% BSA) for one hour. In the meantime, 1 ml of 1 mM biotinylated peptide in PBS-0.1% Tween 20 was added to 20 ml of 1 mg/ml streptavidin-alkaline phosphatase (SA-AP) in PBS-0.1% Tween 20 and incubated at 4° C. for 30 minutes. […] Excess biotin-binding sites would then be blocked by addition of 500 pmol biotin. […] Ten μl of 0.1 mM biotin would then be added, and the solution incubated for an additional 15 min.
To determine the ligand preferences of the novel WW omain-containing clones described in Sections 6.1 and 6.1.1, as well as addressing the issue of whether peptides containing PPPPY (SEQ ID NO:3)-like motifs derived from a variety of proteins could also serve as recognition units and bind to these clones, a cross affinity mapping experiment was performed (FIGS. 15A–D). The peptides shown in FIGS. 15A–D were synthesized, biotinylated, complexed with streptavidin-alkaline phosphatase, and tested in an ELISA based assay for their ability to bind to the twelve individual novel WW domains of WWP1, WWP2, WWP3 and WWP4 which were expressed as GST fusion proteins. The ELISA based cross-affinity experiments were performed essentially as described by Sparks et al. (1996, Proc. Natl. Acad. Sci. 93:1540–1544) with the following modifications. Briefly, microtiter wells were coated with 1–5 μg of fusion protein in 100 mM NaHCO3, blocked with SuperBlock TBS (Pierce) and washed four times with PBS, 0.05% Tween 20. Specific peptide-streptavidin/alkaline phosphatase complexes were added as above and unbound complexes washed five times with PBS, 0.05% Tween 20. Following addition of PNP substrate (p-nitrophenyl phosphate, Kirkegard & Perry Labs), peptide binding was quantitated after 30 min. at O.D. 405 nm. Relative binding measurements from three independent determinations were assigned to a scale as follows: O.D. units 0–0.5=(−), 0.5–1.0=(+), 1.0–2.0=(++), 2.0–3.0=(+++), >3.0=(++++). Peptide binding to human Fyn and Lyn SH3 and SH2 domains was assessed by a filter binding assay (see Section 6.1 and Sparks et al., 1996, Proc. Natl. Acad. Sci 93:1540–1544). Peptide sequences used in cross-affinity experiments correspond to segments of the following genes: RasGap (Database accession # P20936), AP-2 (P05549), p53BP-2 (U09582), IL-6Rα (P22272), voltage-gated chloride channel CLCN5 (X91906), IL-2Rγ (D111086), RSV (D10652), HTLV-1 (D13784), β-dystroglycan (L19711), Formin (X53599), amiloride-sensitive epithelial Na^+ channel ENaCα (P37089), ENaCβ (X87159) and ENaCγ (X87160), muscarinic acetylcholine receptor M4 AChR (P08173), and c-Abl (P00522). Src and Crk SH3 binding peptide sequences were derived from a phage display random peptide library screen (Section 6.1 and Sparks et al., 1996, Proc. Natl. Acad. Sci. 93:1540–1544).

Substance	binding to WW domains of WWP1
Biotin-SGSGPGTPPPPYTVGPGY [WBP-1]	specifically bind
Biotin-SGSGPGTPYPPPPEFY [WBP-2B]	none of the WW domains of these proteins specifically bind
Biotin-SGSGYVQPPPPPYPGPM [WBP-2A]	specifically bind
